From US11318137B2, “Quinazoline compounds as modulators of Ras signaling” (VANDERBILT UNIVERSITY, priority 2017, dated 2022)
pEC50, pIC50, pKi: −log10 of the molar value.

How the values were obtained:
Son of Sevenless (SOS) = target: T1, Son of Sevenless (SOS) (Homo sapiens, UniProt Q07889); experiment: Binding to SOS, fluorescence polarization anisotropy (FPA) displacement of FITC-conjugated probe; conditions: binding affinity calculated from IC50 of FITC-probe displacement, read-out: Binding affinities (binding affinity to SOS)
T1 sequence (Q07889 564-1049 limits assumed): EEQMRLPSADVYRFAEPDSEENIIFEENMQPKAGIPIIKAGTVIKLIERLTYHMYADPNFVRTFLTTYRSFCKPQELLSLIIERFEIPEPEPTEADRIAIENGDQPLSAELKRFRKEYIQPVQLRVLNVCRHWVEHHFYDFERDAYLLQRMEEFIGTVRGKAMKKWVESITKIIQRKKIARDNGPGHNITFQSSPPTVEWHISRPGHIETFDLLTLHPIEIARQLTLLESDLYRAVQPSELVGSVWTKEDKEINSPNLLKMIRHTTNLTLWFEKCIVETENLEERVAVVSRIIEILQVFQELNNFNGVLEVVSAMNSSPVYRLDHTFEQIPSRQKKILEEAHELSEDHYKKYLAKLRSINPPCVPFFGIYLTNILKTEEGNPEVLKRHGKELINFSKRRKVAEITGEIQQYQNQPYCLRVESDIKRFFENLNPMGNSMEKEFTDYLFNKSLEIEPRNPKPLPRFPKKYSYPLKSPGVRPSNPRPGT
Procedure, shortened: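 FITC-labelled probe incubated with SOS in buffer; displacement by test compound across a dose range read as fluorescence anisotropy change. IC50 from four-parameter variable-slope fit, binding affinity calculated from IC50.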

[1] = target: T2, SOS-mediated nucleotide exchange on Ras (Homo sapiens, UniProt Q07889); experiment: SOS-mediated nucleotide exchange on Ras (BODIPY-GDP fluorescence); assay type: biochemical; conditions: Ras loaded with BODIPY-GDP, GTP and SOS added; EC50 from derived exchange rates
T2 sequence (Q07889 1-1333): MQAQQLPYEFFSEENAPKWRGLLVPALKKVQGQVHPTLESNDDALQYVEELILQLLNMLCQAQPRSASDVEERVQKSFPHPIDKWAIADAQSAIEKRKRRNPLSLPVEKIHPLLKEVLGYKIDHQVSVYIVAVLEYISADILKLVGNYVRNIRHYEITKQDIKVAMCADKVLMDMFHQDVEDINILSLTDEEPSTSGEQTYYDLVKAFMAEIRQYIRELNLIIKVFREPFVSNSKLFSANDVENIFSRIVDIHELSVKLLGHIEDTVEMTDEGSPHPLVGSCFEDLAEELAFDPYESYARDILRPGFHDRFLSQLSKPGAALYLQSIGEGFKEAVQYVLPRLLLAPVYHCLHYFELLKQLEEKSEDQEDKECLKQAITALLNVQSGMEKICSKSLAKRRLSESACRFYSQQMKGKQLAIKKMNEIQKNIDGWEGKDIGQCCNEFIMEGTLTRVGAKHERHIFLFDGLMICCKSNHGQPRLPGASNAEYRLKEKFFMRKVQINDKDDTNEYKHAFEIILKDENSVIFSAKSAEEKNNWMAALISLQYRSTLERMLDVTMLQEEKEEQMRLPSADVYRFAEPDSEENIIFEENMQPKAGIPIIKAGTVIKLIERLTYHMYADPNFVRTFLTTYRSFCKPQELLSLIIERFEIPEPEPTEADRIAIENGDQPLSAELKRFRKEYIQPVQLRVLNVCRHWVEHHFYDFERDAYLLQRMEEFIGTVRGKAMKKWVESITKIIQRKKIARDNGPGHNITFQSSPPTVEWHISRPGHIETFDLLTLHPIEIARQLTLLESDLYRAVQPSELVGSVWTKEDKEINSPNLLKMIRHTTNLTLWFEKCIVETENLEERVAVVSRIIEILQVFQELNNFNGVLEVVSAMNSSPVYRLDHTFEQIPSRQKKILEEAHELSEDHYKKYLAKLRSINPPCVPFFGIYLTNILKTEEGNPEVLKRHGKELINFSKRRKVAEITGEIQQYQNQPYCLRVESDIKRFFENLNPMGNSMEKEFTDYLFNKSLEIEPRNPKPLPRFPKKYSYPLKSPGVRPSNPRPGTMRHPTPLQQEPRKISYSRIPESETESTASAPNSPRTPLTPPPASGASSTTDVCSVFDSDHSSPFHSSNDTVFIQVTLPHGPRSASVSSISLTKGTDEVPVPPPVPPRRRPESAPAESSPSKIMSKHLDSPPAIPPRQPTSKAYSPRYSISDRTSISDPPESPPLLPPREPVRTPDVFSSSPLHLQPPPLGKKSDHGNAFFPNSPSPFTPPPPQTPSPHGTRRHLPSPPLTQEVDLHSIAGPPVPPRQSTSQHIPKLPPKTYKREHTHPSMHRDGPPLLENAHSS
Procedure, shortened: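 Compound, then GTP and SOS, were added to buffered Ras preloaded with BODIPY-GDP, and the fluorescence change from labeled GDP being exchanged for GTP was followed over time. Rates came from single-exponential fits, and EC50 from a four-parameter fit of mean rate against compound concentration.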

[2] = tested on: H727 lung cancer cell lines, which contain a G12V K-Ras mutation; experiment: Inhibition of cancer cell proliferation (CellTiter-Glo, 3 days); assay type: cell-based; conditions: Homo sapiens, NCI-H727, 72 h, H727 cells, 3 days at 37° C., normalized to DMSO control, read-out: Cell proliferation activity (H727 cancer cell line proliferation IC50)
Protocol: C. Inhibition of Cancer Cell Proliferation
Compounds of the present invention were measured for their ability to kill H727 lung cancer cell lines, which contain a G12V K-Ras mutation. Cell proliferation experiments were conducted in 96-well plates. Cells were plated at 1000 cells/well, incubated overnight, followed by treatment with a dose range of compound for 3 days at 37° C. Cell proliferation was assessed using a CellTiter-Glo assay (Promega) according to the manufacturer's protocol. Data were normalized to DMSO control. IC50 values were determined using a four-parameter dose-response (variable slope) equation. These assays are performed in a manner analogous to the assay disclosed in: Burns, M. C.; Sun, Q.; Daniels, R. N.; Camper, D. V.; Kennedy, J. P.; Phan, J.; Olejniczak, E. O.; Lee, T.; Waterson, A. G.; Rossanese, O. W.; Fesik, S. W. “Approach for targeting Ras with small molecules that activate SOS-mediated nucleotide exchange” Proc. Natl. Acad. Sci. 2014; 11(9): 3401-3406. PMCID: PMC3948241.

| Compound | pKi (Son of Sevenless (SOS)) | pEC50 [1] | pIC50 [2] |
| --- | --- | --- | --- |
| NCc1cccc2c(NC(C3CC3)C3CC3)nc(NCC3CCCCC3)nc12 [Example 75, 8-(aminomethyl)-N^2-(cyclohexylmethyl)-N^4-(dicyclopropylmethyl)quinazoline-2,4-diamine] | < 5.30 | 4.52 to 5.30 | > 6.00 |
| C[C@@H](Nc1nc(NCC2CCCCC2)nc2c(C3=CCNCC3)cccc12)C1CC1 [Example 76, (R)—N^2-(cyclohexylmethyl)-N^4-(1-cyclopropylethyl)-8-(1,2,3,6-tetrahydropyridin-4-yl)quinazoline-2,4-diamine] | 5.30 to 6.00 | 5.30 to 6.00 | > 6.00 |
| C[C@@H](Nc1nc(NCC2CCCCC2)nc2c(CN)cccc12)C1CC1 [Example 78, (R)-8-(aminomethyl)-N^2-(cyclohexylmethyl)-N^4-(1-cyclopropylethyl)quinazoline-2,4-diamine] | < 5.30 | 5.30 to 6.00 | 4.70 to 5.30 |
| CCC(CC)CNc1nc(Nc2ccc(F)c(Cl)c2)nc2c(C3=CCNCC3)cccc12 [Example 98, N^2-(3-chloro-4-fluorophenyl)-N^4-(2-ethylbutyl)-8-(1,2,3,6-tetrahydropyridin-4-yl)quinazoline-2,4-diamine] | 5.30 to 6.00 | 4.52 to 5.30 | 5.30 to 6.00 |
| CC[C@@H](Nc1nc(Nc2ccc(F)c(Cl)c2)nc2c(N3CCNCC3)cccc12)c1cccs1 [Example 101, (R)—N^2-(3-chloro-4-fluorophenyl)-8-(piperazin-1-yl)-N^4-(1-(thiophen-2-yl)propyl)quinazoline-2,4-diamine] | < 5.30 | 4.52 to 5.30 | 5.30 to 6.00 |
| CCC(CC)CNc1nc(Nc2ccc(F)c(Cl)c2)nc2c(N3CCNCC3)cccc12 [Example 102, N^2-(3-chloro-4-fluorophenyl)-N^4-(2-ethylbutyl)-8-(piperazin-1-yl)quinazoline-2,4-diamine] | < 5.30 | 4.52 to 5.30 | 5.30 to 6.00 |
| CC1CCC(CNc2nc(N[C@H](C)C3CC3)c3cccc(C4=CCNCC4)c3n2)CC1 (stereo partly drawn) [Example 104, (R)—N^4-(1-cyclopropylethyl)-N^2-((4-methylcyclohexyl)methyl)-8-(1,2,3,6-tetrahydropyridin-4-yl)quinazoline-2,4-diamine] | 5.30 to 6.00 | 5.30 to 6.00 | > 6.00 |
